Reference: PMC5607274, “An iterative compound screening contest method for identifying target protein inhibitors using the tyrosine-protein kinase Yes” (Scientific Reports, 2017)

Target: T1, human recombinant Yes [a.a. 2–543 (end)] (Homo sapiens, UniProt P07947)
T1 construct: human recombinant Yes [a.a; 2–543 (end)]; purchased BPS Bioscience 40488
Experiment: ADP-Glo kinase assay, inhibition rates of Yes phosphorylation activity (first and second screening)
Type: biochemical
Settings: 10 μmol L−1 compound; for First screening IR (inhibition rate): mean of n = 4 wells; for Second screening IR (inhibition rate): dissolved from fresh powder, n = 4
How it was run: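 ADP-Glo luminescence measured inhibition of human recombinant Yes (a.a. 2–543) phosphorylation activity. In the first screen, each compound ran in 4 wells and inhibition rates were averaged. The second screen retested hits as compounds dissolved from fresh powder.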

T1 sequence (P07947 2-543): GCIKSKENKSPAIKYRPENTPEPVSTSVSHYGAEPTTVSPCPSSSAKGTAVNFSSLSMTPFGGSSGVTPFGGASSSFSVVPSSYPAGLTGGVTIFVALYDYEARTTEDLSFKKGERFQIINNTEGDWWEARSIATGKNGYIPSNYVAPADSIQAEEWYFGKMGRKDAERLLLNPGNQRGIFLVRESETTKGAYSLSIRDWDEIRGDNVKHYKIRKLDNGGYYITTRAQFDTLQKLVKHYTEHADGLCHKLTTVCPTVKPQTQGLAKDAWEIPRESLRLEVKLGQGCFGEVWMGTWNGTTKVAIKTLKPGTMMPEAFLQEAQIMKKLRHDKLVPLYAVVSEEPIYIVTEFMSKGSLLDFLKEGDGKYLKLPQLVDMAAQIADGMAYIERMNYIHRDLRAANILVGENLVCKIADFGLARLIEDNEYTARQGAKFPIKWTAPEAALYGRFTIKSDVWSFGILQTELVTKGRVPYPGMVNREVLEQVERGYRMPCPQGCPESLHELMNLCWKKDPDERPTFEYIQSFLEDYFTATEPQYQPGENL

SMILES	First screening IR (inhibition rate)	Second screening IR (inhibition rate)
Cc1cn2c3c(=O)n(CCN4CCCCC4)c(=O)n(C)c3nc2n1-c1ccc(Oc2ccccc2)cc1 [Compound Z247616328]	11%	
CS(=O)(=O)c1ccc(S(=O)(=O)Cl)cc1 [Compound Z248485700]	73%	-3%
Cc1ccc(C(CNC(=O)c2cc(Cl)c[nH]2)N2CCOCC2)o1 (stereo not drawn) [Compound Z254387106]	-10%	
CCn1ncc2c(C(=O)N(C)C)cc(-c3cccs3)nc21 [Compound Z254580980]	-9%	
O=C1CN(C(=O)c2nn(-c3ccc(F)cc3)c3c2CCCCC3)CCN1 [Compound Z254636716]	10%	
NC(=O)CCn1c(SCc2cn3ccccc3n2)nnc1-c1cccs1 [Compound Z269761360]	7%	
O=C(Nc1cccc(C#Cc2cccs2)c1)C1CC2CCCC(C1)C2=O (stereo not drawn) [Compound Z271080962]	-2%	
CS(=O)(=O)c1ccccc1S(=O)(=O)Cl [Compound Z271096440]	59%	2%
Cc1cn2c3c(=O)n(CC(C)C)c(=O)n(C)c3nc2n1-c1ccc(S(N)(=O)=O)cc1 [Compound Z271111810]	4%	
c1ccc(-c2nc(Sc3n[nH]c(-c4ccncc4)n3)nc3ccccc23)cc1 [Compound Z271700602]	-1%	
Cc1sc2nc(CN3CCC(C)CC3)nc(N3CCN(C(=O)c4ccccc4F)CC3)c2c1C [Compound Z275104396]	0%	
CCn1c(CSc2nnc(-c3sc(C)nc3C)o2)nc2cc(S(=O)(=O)N(C)C)ccc21 [Compound Z275500628]	49%	
CCn1c(=O)c2c(nc3n(-c4ccc(N(C)C)cc4)c(C)cn23)n(C)c1=O [Compound Z278205390]	10%	
Nc1nccnc1C(=O)Nc1ncc(Cc2cc(F)cc(F)c2)s1 [Compound Z281652038]	-1%	
Cc1cn2c3c(=O)n(CC(C)C)c(=O)n(C)c3nc2n1-c1ccc(N(C)C)cc1 [Compound Z281877508]	6%	
CCN(CC)Cc1ccc(CNC(=O)c2ccccc2SCc2cscn2)cc1 [Compound Z283831144]	33%	
CN(Cc1ccc(F)cc1F)C(=O)c1cc(-c2ccccc2)nc2c1cnn2Cc1ccncc1 [Compound Z283846026]	11%	
CCCn1c(=O)[nH]c(=O)c2cc(C(=O)N(CC)Cc3ccc4c(c3)OCO4)cnc21 [Compound Z284160386]	5%	
CC(=O)N1CCc2cc(NC(=O)c3ccccc3SCc3cn4ccccc4n3)ccc21 [Compound Z285525778]	-11%	
CS(=O)(=O)c1ccc(S(=O)(=O)N2CCCC2)cc1 [Compound Z285664940]	8%	
CS(=O)(=O)c1ccccc1S(=O)(=O)N1CCCC1 [Compound Z285664942]	-3%	
CC1CC(C)CN(S(=O)(=O)c2ccccc2S(C)(=O)=O)C1 (stereo not drawn) [Compound Z285665176]	55%	

SMILES	First screening IR (inhibition rate)	Second screening IR (inhibition rate)
CCCN(CCC)S(=O)(=O)c1ccc(S(C)(=O)=O)cc1 [Compound Z285665192]	14%	
CN(Cc1ccccc1Cl)S(=O)(=O)c1ccccc1S(C)(=O)=O [Compound Z285666434]	-2%	
FC(F)(F)c1ccnc(Nc2ccc3c(c2)OCO3)n1 [Compound Z285674740]	21%	
FC(F)(F)c1ccnc(Nc2ccc(N3CCOCC3)cc2)n1 [Compound Z285679120]	7%	
FC(F)(F)c1ccnc(Nc2cccc(/C=C/c3ccccn3)c2)n1 [Compound Z285694006]	12%	
O=C1CCCN1c1ccc(Nc2nccc(C(F)(F)F)n2)cc1 [Compound Z285697278]	-12%	
FC(F)(F)c1ccnc(Nc2ccc3[nH]ncc3c2)n1 [Compound Z285702074]	0%	
FC(F)(F)c1ccnc(Nc2ccc3c(c2)OC2(CCCCC2)O3)n1 [Compound Z285712986]	4%	
CN1C/C(=C/c2ccc(-n3cncn3)cc2)c2nc3ccccc3c(C(=O)O)c2C1 [Compound Z285929216]	1%	
CCCN(CCC)S(=O)(=O)c1cccc(S(=O)(=O)N(C)C)c1 [Compound Z285950112]	-4%	
CN(C)S(=O)(=O)c1cccc(S(=O)(=O)N(C)C)c1 [Compound Z285953016]	13%	
CNS(=O)(=O)c1cccc(S(=O)(=O)N(C)C)c1 [Compound Z285953204]	2%	
CC(C)c1cccc(NS(=O)(=O)c2ccc(-n3ncc(Cl)c(Cl)c3=O)cc2)c1 [Compound Z286115224]	6%	
CC1CCCC(C)C12NC(=O)N(CN(C)CC(=O)Nc1ccccc1Cl)C2=O (stereo not drawn) [Compound Z286135428]	5%	
CC(c1ccccc1)N1C(=O)C(=O)N(CC(=O)c2cccn2C)C1=O (stereo not drawn) [Compound Z290228874]	-8%	
CC(C)c1ccc(SCc2nc(N)nc(N(C)C)n2)cc1 [Compound Z290622280]	4%	
Cc1c(C)c(C)c(C(=O)OCC(=O)NCC(=O)N2CCCC2)c(C)c1C [Compound Z291423432]	-6%	
Cc1nn(CCC(=O)O)c2nc(-c3cccs3)cc(C(=O)O)c12 [Compound Z295455358]	-2%	
COc1ccc(-n2cc(-c3ccccc3)c3c(=O)[nH]cnc32)cc1 [Compound Z295463532]	-5%	
CC(NC(=O)C1=NN(c2ccc(F)cc2)C(C(N)=O)C1)c1ccc(F)cc1F (stereo not drawn) [Compound Z295508576]	6%	
CCOC(=O)c1cc(-c2ccccc2)nc2[nH]c(=O)c3ccccc3c12 [Compound Z295883036]	9%	
O=C(Nc1nc(-c2ccc[nH]2)cs1)c1csc(-c2ccco2)n1 [Compound Z296244664]	-6%	

SMILES	First screening IR (inhibition rate)	Second screening IR (inhibition rate)
CC(C)(C)OC(=O)N1CCc2nc(NC(=O)c3csc(-c4ccco4)n3)sc2C1 [Compound Z296452432]	-4%	
CC(Sc1n[nH]c(/C=C/c2ccccc2)n1)c1nc(C(C)(C)C)no1 (stereo not drawn) [Compound Z298272042]	12%	
CS(=O)(=O)c1cccc(S(N)(=O)=O)c1 [Compound Z299680982]	5%	
CCC1CCCCN1S(=O)(=O)c1ccc(S(C)(=O)=O)cc1 (stereo not drawn) [Compound Z300098278]	51%	
CN(C)S(=O)(=O)c1ccc(S(C)(=O)=O)cc1 [Compound Z300114426]	-8%	
Cc1ccc(S(=O)(=O)N2CCCN(S(=O)(=O)N3CC(C)CC(C)C3)CC2)cc1 (stereo not drawn) [Compound Z300467774]	4%	
CN(C1CCCCCC1)S(=O)(=O)c1cccc(S(C)(=O)=O)c1 [Compound Z300508876]	-7%	
CC(C)CN1CCOC(CNC(=O)c2cc3cc(F)ccc3[nH]2)C1 (stereo not drawn) [Compound Z300664804]	-5%	
c1ccc(-c2cn3nc(NCCCN4CCOCC4)sc3n2)cc1 [Compound Z300797868]	11%	
Cc1cc(C)n(CCCNC(=O)c2cc3cc(F)ccc3[nH]2)n1 [Compound Z301214762]	8%	
O=c1[nH]cnc2c1c(-c1ccccc1)cn2-c1ccc(F)cc1 [Compound Z314617634]	7%	
COc1cccc(/C(O)=C2\C(=O)C(=O)N(CCCn3ccnc3)C2c2cccc([N+](=O)[O-])c2)c1 (stereo not drawn) [Compound Z316156320]	-1%	
CCCOc1ccc(C2/C(=C(\O)c3ccc(F)cc3)C(=O)C(=O)N2CCCn2ccnc2)cc1OC (stereo not drawn) [Compound Z316169876]	10%	
COc1ccc(/C(O)=C2\C(=O)C(=O)N(CCCn3ccnc3)C2c2ccc(OC(C)C)cc2)cc1 (stereo not drawn) [Compound Z316169960]	12%	
Fc1ccccc1-n1c(SCc2cccnc2)nnc1-c1ccccc1Cl [Compound Z316264326]	1%	
O=C(Nc1cccc(S(=O)(=O)NC2=NCCCCC2)c1)C1(c2cccc(Cl)c2)CC1 [Compound Z316438002]	23%	
COc1ccc(-c2cc(CSCC(=O)Nc3ccc4c(c3)CCC4)on2)cc1 [Compound Z317186982]	-4%	
COc1ccc(-c2cc(CSCc3nc(N)nc(Nc4ccccc4)n3)on2)cc1 [Compound Z317187130]	-7%	
CC(Sc1ncn(-c2ccccc2)n1)c1nc(N)nc(N(C)C)n1 (stereo not drawn) [Compound Z317369924]	-4%	
O=C(Nc1nc2c(s1)CN(Cc1ccccc1)CC2)c1cc(-c2ccco2)[nH]n1 [Compound Z317663344]	-10%	
